{"source": "PubChem BioAssay AID1919004", "about": "(Molecular Pharmacology Branch, DTP, NCI, 2023);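 also: exposure lasted 7 days after dosing on day 3 of spheroid growth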", "system": "883617-216-R-J1-PDC complex spheroids, growth, % test/control", "assay": "Anticancer human tumor 883617-216-R-J1-PDC patient-derived bladder carcinoma cell line growth inhibition [AhR]", "conditions": "for IC50: curve of first compound; for viability, T/C: stronger effect = lower value", "method_in_brief": "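Spheroids combined tumor cells with HUVEC endothelial cells and human MSCs as stroma. AhR antagonists were paired with standard or investigational drugs, each dosed in half-log steps down from near clinical Cmax, or from 10 microM where Cmax was unknown.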"}
{"smiles": "CC(C)c1c(-c2ccccc2)nc2c(C#N)c[nH]n2c1=O", "note": "+ Cc1cncc(-c2nc(NCCc3c[nH]c4ccccc34)c3ncn(C(C)C)c3n2)c1", "values": [{"measurement": "IC50", "setting": "second compound 0.1 µM", "value": "> 10", "unit": "µM"}, {"measurement": "IC50", "setting": "second compound 0.316 µM", "value": "> 10", "unit": "µM"}, {"measurement": "IC50", "setting": "second compound 1 µM", "value": "> 10", "unit": "µM"}, {"measurement": "IC50", "setting": "second compound 3.16 µM", "value": "> 10", "unit": "µM"}, {"measurement": "IC50", "setting": "second compound 10 µM", "value": 0.0681, "unit": "µM"}, {"measurement": "viability, T/C", "setting": "second compound 0.1 µM, first compound 0.0316 µM", "value": 98.7, "unit": "%"}, {"measurement": "viability, T/C", "setting": "second compound 0.1 µM, first compound 0.1 µM", "value": 93.8, "unit": "%"}, {"measurement": "viability, T/C", "setting": "second compound 0.1 µM, first compound 0.316 µM", "value": 99.3, "unit": "%"}, {"measurement": "viability, T/C", "setting": "second compound 0.1 µM, first compound 1 µM", "value": 99.7, "unit": "%"}, {"measurement": "viability, T/C", "setting": "second compound 0.1 µM, first compound 3.16 µM", "value": 92.6, "unit": "%"}, {"measurement": "viability, T/C", "setting": "second compound 0.1 µM, first compound 10 µM", "value": 91.7, "unit": "%"}, {"measurement": "viability, T/C", "setting": "second compound 0.316 µM, first compound 0.0316 µM", "value": 107, "unit": "%"}, {"measurement": "viability, T/C", "setting": "second compound 0.316 µM, first compound 0.1 µM", "value": 91.8, "unit": "%"}, {"measurement": "viability, T/C", "setting": "second compound 0.316 µM, first compound 0.316 µM", "value": 93, "unit": "%"}, {"measurement": "viability, T/C", "setting": "second compound 0.316 µM, first compound 1 µM", "value": 97.6, "unit": "%"}, {"measurement": "viability, T/C", "setting": "second compound 0.316 µM, first compound 3.16 µM", "value": 103, "unit": "%"}, {"measurement": "viability, T/C", "setting": "second compound 0.316 µM, first compound 10 µM", "value": 94, "unit": "%"}, {"measurement": "viability, T/C", "setting": "second compound 1 µM, first compound 0.0316 µM", "value": 96.6, "unit": "%"}, {"measurement": "viability, T/C", "setting": "second compound 1 µM, first compound 0.1 µM", "value": 114, "unit": "%"}, {"measurement": "viability, T/C", "setting": "second compound 1 µM, first compound 0.316 µM", "value": 107, "unit": "%"}, {"measurement": "viability, T/C", "setting": "second compound 1 µM, first compound 1 µM", "value": 104, "unit": "%"}, {"measurement": "viability, T/C", "setting": "second compound 1 µM, first compound 3.16 µM", "value": 102, "unit": "%"}, {"measurement": "viability, T/C", "setting": "second compound 1 µM, first compound 10 µM", "value": 111, "unit": "%"}, {"measurement": "viability, T/C", "setting": "second compound 3.16 µM, first compound 0.0316 µM", "value": 105, "unit": "%"}, {"measurement": "viability, T/C", "setting": "second compound 3.16 µM, first compound 0.1 µM", "value": 109, "unit": "%"}, {"measurement": "viability, T/C", "setting": "second compound 3.16 µM, first compound 0.316 µM", "value": 115, "unit": "%"}, {"measurement": "viability, T/C", "setting": "second compound 3.16 µM, first compound 1 µM", "value": 105, "unit": "%"}, {"measurement": "viability, T/C", "setting": "second compound 3.16 µM, first compound 3.16 µM", "value": 111, "unit": "%"}, {"measurement": "viability, T/C", "setting": "second compound 3.16 µM, first compound 10 µM", "value": 121, "unit": "%"}, {"measurement": "viability, T/C", "setting": "second compound 10 µM, first compound 0.0316 µM", "value": 53.4, "unit": "%"}, {"measurement": "viability, T/C", "setting": "second compound 10 µM, first compound 0.1 µM", "value": 48.5, "unit": "%"}, {"measurement": "viability, T/C", "setting": "second compound 10 µM, first compound 0.316 µM", "value": 48.4, "unit": "%"}, {"measurement": "viability, T/C", "setting": "second compound 10 µM, first compound 1 µM", "value": 41.7, "unit": "%"}, {"measurement": "viability, T/C", "setting": "second compound 10 µM, first compound 3.16 µM", "value": 43.5, "unit": "%"}, {"measurement": "viability, T/C", "setting": "second compound 10 µM, first compound 10 µM", "value": 55.4, "unit": "%"}]}
